From ChEMBL document CHEMBL5390297, “New Teixobactin Analogues with a Total Lactam Ring” (2023)
≈ marks a conversion by molar mass, not a printed value.

How the values were obtained:
Format in all cases: functional
Escherichia coli = assay: Antibacterial activity against Escherichia coli ATCC 25922 assessed as reduction in bacterial growth incubated for 18 hrs by CLSI based broth microdilution method
Nakaseomyces glabratus = assay: Antifungal activity against Candida glabrata ATCC 15126 assessed as reduction in bacterial growth incubated for 24 hrs by CLSI based broth microdilution method
Staphylococcus aureus [1] = assay: Antibacterial activity against Staphylococcus aureus ATCC 25923 assessed as reduction in bacterial growth incubated for 18 hrs by CLSI based broth microdilution method
[2] = tested on: Staphylococcus epidermidis; assay: Antibacterial activity against Staphylococcus epidermidis ATCC 14990 assessed as reduction in bacterial growth incubated for 18 hrs by CLSI based broth microdilution method
Staphylococcus aureus [3] = assay: Antibacterial activity against methicillin-resistant Staphylococcus aureus ATCC 33591 assessed as reduction in bacterial growth incubated for 24 hrs by CLSI based broth microdilution method

SMILES	MIC (Escherichia coli) [µg/mL]	MIC (Nakaseomyces glabratus) [µg/mL]	MIC (Staphylococcus aureus [1]) [µg/mL]	MIC [2] [µg/mL]	MIC (Staphylococcus aureus [3]) [µg/mL]
CC[C@H](C)[C@H](NC(=O)[C@H](N)Cc1ccccc1)C(=O)N[C@@H](CO)C(=O)N[C@H](CCCNC(=N)N)C(=O)N[C@@H](C(=O)N[C@H](C(=O)N[C@@H](CO)C(=O)N[C@@H]1CNC(=O)[C@H]([C@@H](C)CC)NC(=O)[C@H](CCCNC(=N)N)NC(=O)[C@H](C)NC1=O)[C@@H](C)CC)[C@@H](C)CC	> 512	> 512			
CCCC[C@@H]1NC(=O)[C@H](CCCNC(=N)N)NC(=O)[C@H](C)NC(=O)[C@H](NC(=O)[C@H](CO)NC(=O)[C@@H](NC(=O)[C@H](NC(=O)[C@@H](CCC(N)=O)NC(=O)[C@H](CO)NC(=O)[C@@H](NC(=O)[C@H](N)Cc2ccccc2)[C@@H](C)CC)[C@@H](C)CC)[C@@H](C)CC)CNC1=O	> 512	> 512	4 (≈ 3.29 µM)	8 (≈ 6.58 µM)	4 (≈ 3.29 µM)
CC[C@H](C)[C@@H]1NC(=O)[C@H](CCCNC(=N)N)NC(=O)[C@H](C)NC(=O)[C@H](NC(=O)[C@H](CO)NC(=O)[C@@H](NC(=O)[C@H](NC(=O)[C@@H](CCC(N)=O)NC(=O)[C@H](CO)NC(=O)[C@@H](NC(=O)[C@@H](Cc2ccccc2)NC)[C@@H](C)CC)[C@@H](C)CC)[C@@H](C)CC)CNC1=O	> 512	> 512			
CCCC[C@@H]1NC(=O)[C@H](CCCNC(=N)N)NC(=O)[C@H](C)NC(=O)[C@H](NC(=O)[C@H](CO)NC(=O)[C@@H](NC(=O)[C@H](NC(=O)[C@@H](CCC(N)=O)NC(=O)[C@H](CO)NC(=O)[C@@H](NC(=O)[C@@H](Cc2ccccc2)NC)[C@@H](C)CC)[C@@H](C)CC)[C@@H](C)CC)CNC1=O	> 512	> 512			
CC[C@H](C)[C@H](NC(=O)[C@H](N)Cc1ccccc1)C(=O)N[C@@H](CO)C(=O)N[C@H](CCC(N)=O)C(=O)N[C@@H](C(=O)N[C@H](C(=O)N[C@@H](CO)C(=O)N[C@@H]1CNC(=O)[C@H]([C@@H](C)CC)NC(=O)[C@H](CCCNC(=N)N)NC(=O)[C@H](C)NC1=O)[C@@H](C)CC)[C@@H](C)CC	> 512	> 512			
